Broadly, the viability is a read-out of living cells in per cent, often relative to untreated cells.

Viability data for 78 molecules are collected here from paper PMC12040169 (PLOS Biology, 2025).

This data set in a line: in vitro. The note with it: human, hela cells, % viability.

For the molecule `Cc1nnc(SCC(=O)n2c3c(c4ccccc42)CCCC3)n1C` [CBK268351], the viability at 28.5 h, 10 µM was 111%.

Take `Cn1c(C(=O)NCCN2CCOCC2)cc2oc(-c3ccccc3)nc2c1=O` [CBK056726T]: the viability at 28.5 h, 10 µM was 87.8%.

For `CC(C)NC(=O)NC[C@H]1C[C@@H]2CC[N@]1C[C@@H]2CN1CCN(c2ccccn2)CC1` [CBK289112], the viability at 28.5 h, 10 µM amounted to 105%.

In the case of `Cc1nc2c(Oc3ncccn3)cccn2c1N(C)C(=O)C1CCCCC1` [CBK147161], the viability at 28.5 h, 10 µM came to 99.1%.

With `CC(C)Cn1cncc1CN1C(=O)CC2(CCCC2)CC1=O` [CBK306600], the viability at 28.5 h, 10 µM amounted to 116%.

Consider `O=C(O)COc1ccc(NC(=O)CSCc2ccc(Cl)cc2Cl)cc1` [CBK131700], for which the viability at 28.5 h, 10 µM was 89.2%.

`CC1CCCCN1S(=O)(=O)c1ccc(NCCC(=O)c2ccc(Cl)cc2)cc1` (stereo not drawn) [CBK268529]: the viability at 28.5 h, 10 µM is 113%.

`Cc1nc(-c2ccccc2)sc1CNC(=O)CCc1c[nH]c2ccccc12` [CBK092373]: the viability at 28.5 h, 10 µM turned out to be 106%.

In the case of `O=C(NCCc1ccc(O)cc1)c1ccc2nc[nH]c2c1` [CBK153323], the viability at 28.5 h, 10 µM stood at 106%.

Regarding `CC(C)Oc1ccccc1CN(C)C(C)c1ccc(S(N)(=O)=O)cc1` (stereo not drawn) [CBK305436], the viability at 28.5 h, 10 µM amounted to 94.4%.

Regarding `COc1ccc(-c2nc(NC(=O)c3ccccn3)cnc2-c2cccc(C(F)(F)F)c2)cc1` [CBK036785], the viability at 28.5 h, 10 µM worked out at 110%.

Consider `COCOc1ccc(-c2nc(-c3cnc(OC)nc3OC)cnc2N)cc1` [CBK063991], for which the viability at 28.5 h, 10 µM is 91.9%.

With `CCCn1cc(C(=O)NCc2ccc(Cl)cc2)c(=O)c2cc(CN3CCOCC3)sc21` [CBK018478], the viability at 28.5 h, 10 µM was 93.8%.

On to `c1ccc(C(NCc2cnc(C3CCC3)s2)C2CCCC2)nc1` (stereo not drawn) [CBK304022], for which the viability at 28.5 h, 10 µM was found to be 88.6%.

In the case of `COc1ccc(CNC(=O)c2cc(S(=O)(=O)N3CCCC3)cs2)cc1` [CBK307576], the viability at 28.5 h, 10 µM came to 93.6%.

Consider `C=CCN(CC=C)Cc1c(C)nc2ccc(CC)cc2c1O` [CBK264998], for which the viability at 28.5 h, 10 µM amounted to 92.6%.

On to `Cc1ccc(-n2c3c(cc(C(=O)NCCCN4CCOCC4)c2=O)C(=O)CCC3)cc1` [CBK266094], for which the viability at 28.5 h, 10 µM was 115%.

In the case of `CC(=O)Nc1ccc(NC(=O)CCC(=O)O)cc1C` [CBK265395], the viability at 28.5 h, 10 µM amounted to 95.3%.

With `O=C(O)c1csc(-c2ccc(Cl)cc2Cl)n1` [CBK067777], the viability at 28.5 h, 10 µM was determined as 90%.

Take `Cn1c(=O)c2[nH]c(NCCc3ccc(Cl)cc3)nc2n(C)c1=O` [CBK269794]: the viability at 28.5 h, 10 µM was determined as 92%.

As for `COc1ccc(C(=O)NC(=S)Nc2ccccc2N2CCN(C)CC2)cc1[N+](=O)[O-]` [CBK268292C], the viability at 28.5 h, 10 µM amounted to 87%.

Regarding `Cc1cc(-c2cc(C)n[nH]2)[nH]n1` [CBK262079], the viability at 28.5 h, 10 µM is 107%.

As to `Cn1cc(CN2CCCC(c3cccc(Cc4ccc(Cl)cc4)n3)C2)cn1` (stereo not drawn) [CBK286242], the viability at 28.5 h, 10 µM worked out at 81.8%.

With `COc1cc(NC(=O)c2ccc3c(c2)C(=O)N(c2c(C)cc(C)cc2C)C3=O)c(C(=O)O)cc1OC` [CBK264074], the viability at 28.5 h, 10 µM is 91.1%.

In the case of `CCCc1cc(C(=O)OC)c(NC(=O)CC2Nc3ccccc3NC2=O)s1` (stereo not drawn) [CBK269451], the viability at 28.5 h, 10 µM was found to be 107%.

With `COC(=O)c1sc(NC(=O)C2CCCO2)c(C(=O)OC)c1C` (stereo not drawn) [CBK262622], the viability at 28.5 h, 10 µM came to 88%.

Take `Cn1nc(C2CCCC2)cc1[C@H]1CN2CC[C@H]1C[C@@H]2CNS(C)(=O)=O` [CBK288742]: the viability at 28.5 h, 10 µM was found to be 91.5%.

For the molecule `CC(C)[C@H](CO)Nc1nc(-c2ccc(S(C)(=O)=O)cc2)cnc1N` [CBK063718], the viability at 28.5 h, 10 µM was determined as 110%.

Take `O=C(Nc1cccc(CCc2nc3ccccc3[nH]2)c1)c1ccc(Cn2cncn2)cc1` [CBK285648]: the viability at 28.5 h, 10 µM is 89.1%.

With `Cc1nn(C)cc1CN1CCC(C(=O)NCCc2ccccc2)C1` (stereo not drawn) [CBK281968], the viability at 28.5 h, 10 µM was 111%.

Regarding `O=C(CSc1ncnc2ccccc12)NCc1ccco1` [CBK287509], the viability at 28.5 h, 10 µM was 98.8%.

In the case of `Cn1ncc2c1CCCN(C(=O)Cc1ccc3c(c1)CCCO3)C2` [CBK282253], the viability at 28.5 h, 10 µM came to 87.8%.

Turning to `CN1CCC(CNS(=O)(=O)c2cccc3c2OCC3)CC1=O` (stereo not drawn) [CBK305465], the viability at 28.5 h, 10 µM amounted to 114%.

As for `CC12CN3CC(C)(CN(C1)C3c1ccc([N+](=O)[O-])cc1)C2` (stereo not drawn) [CBK262665], the viability at 28.5 h, 10 µM was determined as 95.2%.

`COC(=O)CC[C@H]1CNC(=O)[C@@H]2[C@@H](CCN2C)N1C` [CBK289020]: the viability at 28.5 h, 10 µM is 95.4%.

On to `COc1ccc(NC(=O)N[C@H]2C[C@H]3C(=O)N[C@H](Cc4ccccc4)C(=O)N3C2)cc1` [CBK289227], for which the viability at 28.5 h, 10 µM is 84.7%.

`CCC(c1nc2ccccc2c(=O)n1-c1cccnc1)N1C(=O)c2ccccc2C1=O` (stereo not drawn) [CBK268300]: the viability at 28.5 h, 10 µM came out at 99.1%.

As to `O=C(NC(Cc1cccs1)c1nccs1)c1cc[nH]n1` (stereo not drawn) [CBK285052], the viability at 28.5 h, 10 µM was found to be 87.4%.

`CCN(CC)CCn1c(=N)n(Cc2ccc(C(C)(C)C)cc2)c2ccccc21` [CBK268803B]: the viability at 28.5 h, 10 µM came to 82.9%.

Regarding `O=C1Nc2ccc(Br)cc2C(=O)N2CCN(C(=O)c3ccccc3)C[C@H]12` [CBK289589], the viability at 28.5 h, 10 µM worked out at 121%.

For the molecule `C[C@H]1CN(C(=O)c2cc(C3CC3)no2)[C@@H](C)CN1Cc1ccco1` [CBK281736], the viability at 28.5 h, 10 µM was 106%.

As to `O=C1N[C@@H]2CCN(Cc3cnccn3)C[C@H]2C/C=C/CC2(CCOCC2)C(=O)N[C@H]1Cc1ccccc1` [CBK292189], the viability at 28.5 h, 10 µM stood at 97.3%.

As to `O=C1NC(=O)C(=CNCCN2CCN(C(=O)c3ccccc3)CC2)C(=O)N1` [CBK265190], the viability at 28.5 h, 10 µM (bulk resorufin, single well) turned out to be 90.5%.

Take `CC(C)c1ccc(/C=C/C(=O)NCc2ccc(NS(C)(=O)=O)cc2)cc1` [CBK161512]: the viability at 28.5 h, 10 µM worked out at 97.8%.

On to `COc1c(Cl)cc(Cl)cc1C(=O)NC(=S)Nc1sc2c(c1C#N)CCCC2` [CBK268741], for which the viability at 28.5 h, 10 µM turned out to be 84.4%.

As to `CC1CCCC(C)N1C(=O)CN1C2CCC1CC(O)(c1ccco1)C2` (stereo not drawn) [CBK284043], the viability at 28.5 h, 10 µM amounted to 85.4%.

Turning to `O=C(Nc1ccc(Cl)c(S(=O)(=O)N2CCCC2)c1)c1cnccn1` [CBK295176], the viability at 28.5 h, 10 µM was 87.9%.

As to `COc1ccc2[nH]c3c(c2c1)CCNC31CCN(Cc2ccccc2)C1` (stereo not drawn) [CBK073952C], the viability at 28.5 h, 10 µM is 86.5%.

Regarding `CC(C)N1CCC(C(=O)NC(=O)NCCc2ccc3c(c2)OCO3)CC1` [CBK034804], the viability at 28.5 h, 10 µM is 96.6%.

As for `CC(=O)Nc1nc(C)c(S(=O)(=O)Nc2nc(C(C)C)ns2)s1` [CBK051227], the viability at 28.5 h, 10 µM worked out at 90.9%.

Consider `O=C(c1cccnc1NCc1ccc2c(c1)OCO2)N1CCNCC1` [CBK156112T], for which the viability at 28.5 h, 10 µM turned out to be 104%.

In the case of `COc1ccc(CCN2C(=O)NC(=O)/C(=C\c3c(C)[nH]c4ccccc34)C2=O)cc1OC` [CBK265368], the viability at 28.5 h, 10 µM (bulk resorufin, single well) was determined as 81.6%.

As for `Cc1ccncc1C(=O)Nc1c(C)noc1C` [CBK200393], the viability at 28.5 h, 10 µM was 80.7%.

Turning to `O=C(NC1CCN(Cc2ccccc2)CC1)c1cnc(-c2ccc(Cl)cc2)c(-c2cccnc2)c1` [CBK037602], the viability at 28.5 h, 10 µM amounted to 92.2%.

As to `COc1ccc2sc(N(Cc3cccnc3)C(=O)C3COc4ccccc4O3)nc2c1` (stereo not drawn) [CBK294424], the viability at 28.5 h, 10 µM is 107%.

On to `Clc1ccc(-c2ccc(/C=N/c3ccc4oc(-c5ccccc5)nc4c3)o2)cc1` [CBK261969], for which the viability at 28.5 h, 10 µM amounted to 102%.

Take `COc1ccc(C)cc1S(=O)(=O)n1ccc2c(CN3CCC(N)CC3)cccc21` [CBK113312T]: the viability at 28.5 h, 10 µM came to 78.6%.

For `Cc1nn(C)cc1C(C)NC(=O)C1(c2ccccc2F)CCOCC1` (stereo not drawn) [CBK281594], the viability at 28.5 h, 10 µM was found to be 80.8%.

Regarding `O=C(Cc1csc(-c2ccc(Cl)cc2)n1)NCC1CCCN1` (stereo not drawn) [CBK160982], the viability at 28.5 h, 10 µM was 106%.

With `Cc1ccc(OCCNC(=O)C(C)Cn2cccn2)cc1` (stereo not drawn) [CBK283252], the viability at 28.5 h, 10 µM was determined as 111%.

For the molecule `CSCCC(NC(=O)c1ccccc1NC(=O)c1ccc(C)cc1)C(=O)O` (stereo not drawn) [CBK296067], the viability at 28.5 h, 10 µM was determined as 94.1%.

On to `O=C(Nc1[nH]nc(O)c1Cc1c(Cl)cccc1Cl)C1CCCCC1` [CBK084558], for which the viability at 28.5 h, 10 µM is 92.9%.

With `CCOC(=O)N1CCC2(CC1)OCc1ccc(-c3ccc(S(C)(=O)=O)nc3)cc1O2` [CBK174780], for the setting “bulk resorufin, single well”, the viability at 28.5 h, 10 µM is 92%.

For `O=C(CN1CCOCC1)Nc1sc2c(c1C(=O)Nc1ccc(Cl)cc1)CCC2` [CBK265056], the viability at 28.5 h, 10 µM came out at 102%.

`COCCCn1c(=O)[nH]c2ncc(-c3cnc(OC)nc3)nc21` [CBK064618]: the viability at 28.5 h, 10 µM is 92%.

`CCC1CCCCN1C(=O)Cn1cnc2c(Cl)cc(Cl)cc2c1=O` (stereo not drawn) [CBK305833]: the viability at 28.5 h, 10 µM worked out at 90%.

Consider `COc1cc(CN2CCC(N3CCCCC3)CC2)c([N+](=O)[O-])cc1OC` [CBK261858], for which the viability at 28.5 h, 10 µM was 93.3%.

For the molecule `CCOC(=O)c1cnc(SCCc2ccccc2)nc1N` [CBK085871], the viability at 28.5 h, 10 µM was 88.1%.

In the case of `CN(C)C(=O)CN1CC[C@@H](c2ccccc2)[C@H](O)C1` [CBK283979], the viability at 28.5 h, 10 µM worked out at 83%.

On to `O=C(O)c1cccc(Sc2cccc(C(F)(F)F)n2)c1` [CBK093592], for which the viability at 28.5 h, 10 µM came to 98%.

With `O=c1c2cccnc2ncn1CC(O)COc1ccc(-c2ccccc2)cc1` (stereo not drawn) [CBK296690], the viability at 28.5 h, 10 µM stood at 99.1%.

Turning to `Cc1ccc(N(CC(=O)N/N=C2\C(=O)Nc3ccccc32)S(=O)(=O)c2ccccc2)cc1` [CBK262169], the viability at 28.5 h, 10 µM was 105%.

On to `Cn1ccnc1C1(O)CCN(C(=O)c2ccc(F)cc2)CC1` [CBK283541], for which the viability at 28.5 h, 10 µM turned out to be 91.5%.

As for `CN(/N=C/c1cc(Br)cs1)c1ccc(Cl)nn1` [CBK028729], the viability at 28.5 h, 10 µM was found to be 94.1%.

With `Cc1cccnc1C(c1ccccc1)N(C)C(=O)C1CCN(C(=O)NCc2ccccc2)CC1` (stereo not drawn) [CBK074119], the viability at 28.5 h, 10 µM was determined as 106%.

For the molecule `Cn1cc(-c2nccnc2OCCN2CCCC2=O)cn1` [CBK107068], the viability at 28.5 h, 10 µM was 106%.

`CC(=O)NCCOc1nc(N(C)C)nc(N2CCOCC2)n1` [CBK266651]: the viability at 28.5 h, 10 µM turned out to be 96.7%.

With `COc1cc(C)c(-c2nc(C)nc(C)c2C)c(C)c1` [CBK306711], the viability at 28.5 h, 10 µM is 90.5%.
